Several values for one entry are separate records, joined by “and”; a condition that tells them apart may be missing. Identical values can stand only once. Entries after “also recorded” stand apart in the source; their conditions may differ.
How the values were obtained:
EeAChE = target: T1, EeAChE (Electrophorus electricus, UniProt O42275); test: biochemical; details: for inhibition at 10 µM: read-out: EeAChE % inhibition at 10 μM (IC50 not given)
T1 construct: purified AChE from Electrophorus; purchased Sigma-Aldrich Type V-S; host or cells: natural enzyme purified from Electrophorus electricus
T1 sequence (O42275 24-633): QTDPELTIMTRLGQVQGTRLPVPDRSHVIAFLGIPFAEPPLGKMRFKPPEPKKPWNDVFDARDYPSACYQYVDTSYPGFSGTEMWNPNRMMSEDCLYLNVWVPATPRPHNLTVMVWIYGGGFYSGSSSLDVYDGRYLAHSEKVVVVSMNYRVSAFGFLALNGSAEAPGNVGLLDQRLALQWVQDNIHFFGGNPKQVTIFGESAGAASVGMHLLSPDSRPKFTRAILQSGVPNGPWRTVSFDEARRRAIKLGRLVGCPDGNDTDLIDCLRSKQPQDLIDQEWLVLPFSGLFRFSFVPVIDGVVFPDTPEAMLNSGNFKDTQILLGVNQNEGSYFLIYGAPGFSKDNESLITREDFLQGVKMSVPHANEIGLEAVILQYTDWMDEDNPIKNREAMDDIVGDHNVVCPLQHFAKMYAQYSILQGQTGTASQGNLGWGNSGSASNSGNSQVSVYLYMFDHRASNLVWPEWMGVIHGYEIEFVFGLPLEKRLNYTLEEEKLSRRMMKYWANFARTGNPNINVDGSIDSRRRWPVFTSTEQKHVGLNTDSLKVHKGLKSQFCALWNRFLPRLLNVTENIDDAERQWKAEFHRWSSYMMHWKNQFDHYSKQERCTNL

[1] = Oxygen radical absorbance capacity (ORAC) assay; details: Trolox Equivalents, mean (n = 3) ± SEM
Procedure: Briefly, in a black 96-well microplate (Nunc), fluorescein and the tested compound were incubated for 15 min at 37 °C. […] All reactions were performed in triplicate, and at least three different assays were performed for each sample.

calcium channel = test: Calcium channel blockade, FLIPR calcium indicator 6 in SH-SY5Y cells; assay type: cell-based; details: KCl/CaCl2-induced calcium flux
Procedure: Assessment of calcium channel blockade of compounds 4a–i was performed according to the previously described protocol using the FLIPR calcium indicator 6 [59]. Briefly, FLIPR-loaded SH-SY5Y cells were exposed for 10 min to a 10 μm concentration of the tested compounds and to nimodipine used as a reference. 0.1% DMSO was used as a vehicle. […] Data were collected in three independent experiments with eight technical replicates per experiment. Outliers detected by the Grubbs test were excluded from further analysis.

eqBChE = target: T2, eqBChE (Equus caballus, UniProt P81908); test: biochemical; assay type: biochemical; details: for inhibition at 10 µM: read-out: eqBChE % inhibition at 10 μM (IC50 not given); for IC50: read-out: eqBChE IC50 ± SEM
T2 construct: BuChE from horse serum; purchased Sigma-Aldrich; host or cells: horse serum
T2 sequence (P81908 whole entry): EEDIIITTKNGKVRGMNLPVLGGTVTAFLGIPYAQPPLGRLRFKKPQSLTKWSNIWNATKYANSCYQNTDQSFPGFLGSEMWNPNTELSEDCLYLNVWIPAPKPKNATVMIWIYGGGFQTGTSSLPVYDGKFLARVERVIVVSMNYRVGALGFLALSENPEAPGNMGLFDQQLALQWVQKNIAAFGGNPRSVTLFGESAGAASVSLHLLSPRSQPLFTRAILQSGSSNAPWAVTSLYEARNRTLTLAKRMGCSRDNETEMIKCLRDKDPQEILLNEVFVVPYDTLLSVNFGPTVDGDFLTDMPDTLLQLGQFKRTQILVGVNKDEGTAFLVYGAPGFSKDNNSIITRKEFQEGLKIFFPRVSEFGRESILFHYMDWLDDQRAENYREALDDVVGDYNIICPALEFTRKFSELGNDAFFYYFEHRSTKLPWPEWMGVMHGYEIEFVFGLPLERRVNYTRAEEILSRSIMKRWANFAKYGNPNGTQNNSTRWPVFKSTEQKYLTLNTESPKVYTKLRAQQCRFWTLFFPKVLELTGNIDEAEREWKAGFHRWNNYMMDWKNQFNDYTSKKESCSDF

Nrf2-ARE [2] = system: Nrf2-ARE; set-up: method as in PMID 27736061; details: cited from earlier work
Nrf2-ARE [3] = test: Nrf2 transcriptional activation, Nrf2/ARE-luciferase reporter cells; assay type: cell-based; details: for CD (concentration required to double the specific luciferase reporter activity): 24 h treatment; for lowest concentration with significant induction of the Nrf2 transcriptional pathway: tested at 1, 5, 10, 25, 50 μM for 24 h
Procedure: The Nrf2-ARE activating effect of selected 4a, 4d and 4f was evaluated in vitro using a cell-based luciferase assay in the AREc32 cell line, tert-butylhydroquinone (TBHQ) being used as positive control.
Then, AREc32 cells were treated with increasing concentrations of each compound (1, 5, 10, 25, 50 μM) for 24 h, and luciferase activity was then measured.
The evaluation of Nrf2 transcriptional activation was then performed using non-cytotoxic concentrations of the tested compounds according to the protocol previously described. Briefly, the cells were seeded as described for the MTT assay, except that white 96-well culture plates were used. After 48 h of incubation, the cells were treated with the tested compounds or DMSO (0.1%). After 24 h of treatment, luciferase activity was measured using the Bright–Glo Luciferase Assay System (Promega, Madison, WI, USA) according to the manufacturer’s instructions. All reactions were performed in duplicate and repeated in at least four different cultures.

Row | SMILES | inhibition at 10 µM (EeAChE) [%] | ORAC [1] | Calcium Antagonism (% Inhibition at 10 μM) ± SEM (calcium channel) [%] | inhibition at 10 µM (eqBChE) [%] | CD (concentration required to double the specific luciferase reporter activity) (Nrf2-ARE [3]) | other results
1 | CCOC(=O)C1=C(C)NC(C)=C(C(=O)OCC)C1c1ccc(NS(=O)(=O)c2ccc(C)cc2)cc1 [Compound 4e, Diethyl 2,6-Dimethyl-4-(4-((4-methylphenyl)sulfonamido)phenyl)-1,4-dihydropyridine-3,5-dicarboxylate] | < 50 | 2.07 ± 0.3 TE | 26 ± 4.1 | < 50 |  | 
2 | COc1ccc2[nH]cc(CCNC(C)=O)c2c1 [melatonin] |  |  |  |  |  | CD (Nrf2-ARE [2]): 60 µM
3 | CC(C)(C)c1cc(O)ccc1O [TBHQ, tert-butylhydroquinone, reference compound] |  |  |  |  | 1.2 µM and 1.2 ± 0.2 µM | 
4 | COCCOC(=O)C1=C(C)NC(C)=C(C(=O)OC(C)C)C1c1cccc([N+](=O)[O-])c1 (centres unmarked) [nimodipine, reference compound] |  |  | 52 ± 4.1 |  |  | 
5 | COC(=O)C1=C(C)NC(C)=C(C(=O)OC)C1c1ccc(NS(=O)(=O)c2ccc(C)cc2)cc1 [Compound 4b, Dimethyl 2,6-Dimethyl-4-(4-((4-methylphenyl)sulfonamido)phenyl)-1,4-dihydropyridine-3,5-dicarboxylate] | < 50 | 1.96 ± 0.1 TE | 37 ± 5.1 | < 50 |  | 
6 | CCOC(=O)C1=C(C)NC(C)=C(C(=O)OCC)C1c1ccc(NS(=O)(=O)c2ccccc2)cc1 [Compound 4d, Diethyl 2,6-Dimethyl-4-(4-(phenylsulfonamido)phenyl)-1,4-dihydropyridine-3,5-dicarboxylate] | < 50 | 1.67 TE and 1.67 ± 0.0 TE | 22 ± 4.7 |  | >50 µM | Nrf2 transcriptional activation (luciferase activity) (Nrf2-ARE [3]; 1-50 μM, 24 h): no significant activity; fold less active than tacrine on eqBChE (eqBChE): 135 fold; selectivity AChE vs BChE (eqBChE): totally selective to BChE; also recorded: fully selective inhibition of BChE; IC50 (eqBChE): 0.3 ± 0.1 µM
7 | COC(=O)C1=C(C)NC(C)=C(C(=O)OC)C1c1ccc(NS(=O)(=O)c2ccccc2)cc1 [Compound 4a, Dimethyl 2,6-Dimethyl-4-(4-(phenylsulfonamido)phenyl)-1,4-dihydropyridine-3,5-dicarboxylate] | < 50 | 1.59 TE and 1.59 ± 0.2 TE | 32 ± 5.1 |  | 19.3 µM and 19.3 ± 6.7 µM | lowest concentration with significant induction of the Nrf2 transcriptional pathway (Nrf2-ARE [3]): 25 µM; selectivity AChE vs BChE (eqBChE): totally selective to BChE; also recorded: fully selective inhibition of BChE; IC50 (eqBChE): 5 ± 0.4 µM
8 | CCOC(=O)C1=C(C)NC(C)=C(C(=O)OCC)C1c1ccc(NS(C)(=O)=O)cc1 [Compound 4f, Diethyl 2,6-Dimethyl-4-(4-(methylsulfonamido)phenyl)-1,4-dihydropyridine-3,5-dicarboxylate] |  | 1.30 TE and 1.30 ± 0.1 TE | 27 ± 3.5 |  | 44.3 µM and 44.3 ± 4.7 µM | IC50 (EeAChE; read-out: EeAChE IC50 ± SEM): 12.6 ± 1.2 µM; lowest concentration with significant induction of the Nrf2 transcriptional pathway (Nrf2-ARE [3]): 50 µM; IC50 (eqBChE): 8.7 ± 0.6 µM
9 | CC1=C(C(=O)OC(C)C)C(c2ccc(NS(=O)(=O)c3ccc(C)cc3)cc2)C(C(=O)OC(C)C)=C(C)N1 [Compound 4h, Diisopropyl 2,6-Dimethyl-4-(4-((4-methylphenyl)sulfonamido)phenyl)-1,4-dihydropyridine-3,5-dicarboxylate] | < 50 | 1.59 ± 0.1 TE | 51 ± 5.3 | < 50 |  | 
10 | COC(=O)C1=C(C)NC(C)=C(C(=O)OC)C1c1ccc(NS(C)(=O)=O)cc1 [Compound 4c, Dimethyl 2,6-Dimethyl-4-(4-(methylsulfonamido)phenyl)-1,4-dihydropyridine-3,5-dicarboxylate] | < 50 | 3.01 TE and 3.01 ± 0.1 TE |  | < 50 |  | 
11 | CC1=C(C(=O)OC(C)C)C(c2ccc(NS(C)(=O)=O)cc2)C(C(=O)OC(C)C)=C(C)N1 [Compound 4i, Diisopropyl 2,6-Dimethyl-4-(4-(methylsulfonamido)phenyl)-1,4-dihydropyridine-3,5-dicarboxylate] | < 50 | 1.11 ± 0.3 TE | 25 ± 5.1 | < 50 |  | 
12 | CC1=C(C(=O)OC(C)C)C(c2ccc(NS(=O)(=O)c3ccccc3)cc2)C(C(=O)OC(C)C)=C(C)N1 [Compound 4g, Diisopropyl 2,6-Dimethyl-4-(4-(phenylsulfonamido)phenyl)-1,4-dihydropyridine-3,5-dicarboxylate] | < 50 | 0.86 TE and 0.86 ± 0.1 TE | 50 ± 4.1 | < 50 |  | 

Reference: publication PMC10253445, “Exploring the Potential of Sulfonamide-Dihydropyridine Hybrids as Multitargeted Ligands for Alzheimer’s Disease Treatment” (International Journal of Molecular Sciences, 2023)
